Tests used:
Conditions in all cases: compound 10.0 µM
[1] = biological target: ACVR1B (human) (UniProt P36896)
[2] = biological target: NEK5 (human) (UniProt Q6P3R8)
[3] = biological target: DCLK1 (human) (UniProt O15075)
[4] = biological target: RPS6KA2 KD1 (human) (UniProt Q15349)
[5] = biological target: PTK2B (human) (UniProt Q14289)
[6] = biological target: CAMKK1 (human) (UniProt Q8N5S9)
[7] = biological target: ITK (human) (UniProt Q08881)
[8] = biological target: TSSK1B (human) (UniProt Q9BXA7)
[9] = biological target: LIMK1 (human) (UniProt P53667)
Sequence of LIMK1 (human) (P53667 whole entry, looked up): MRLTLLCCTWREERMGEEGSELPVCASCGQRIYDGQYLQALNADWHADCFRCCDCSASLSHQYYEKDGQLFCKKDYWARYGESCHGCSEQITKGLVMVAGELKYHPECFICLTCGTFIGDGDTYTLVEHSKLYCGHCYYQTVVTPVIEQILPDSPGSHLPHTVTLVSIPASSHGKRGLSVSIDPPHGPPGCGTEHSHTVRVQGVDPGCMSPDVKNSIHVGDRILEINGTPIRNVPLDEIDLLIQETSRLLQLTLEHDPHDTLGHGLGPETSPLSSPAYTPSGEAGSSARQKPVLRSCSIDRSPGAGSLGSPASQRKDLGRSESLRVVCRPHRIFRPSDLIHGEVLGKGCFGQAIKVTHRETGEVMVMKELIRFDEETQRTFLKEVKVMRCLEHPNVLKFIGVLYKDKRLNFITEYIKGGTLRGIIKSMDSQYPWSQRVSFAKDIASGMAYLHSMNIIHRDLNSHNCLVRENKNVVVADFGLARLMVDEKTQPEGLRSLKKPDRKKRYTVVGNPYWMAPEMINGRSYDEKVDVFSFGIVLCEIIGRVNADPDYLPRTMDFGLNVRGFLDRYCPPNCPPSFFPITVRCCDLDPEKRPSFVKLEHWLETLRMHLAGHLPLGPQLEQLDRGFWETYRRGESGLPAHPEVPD

[10] = biological target: PIM3 (human) (UniProt Q86V86)
[11] = biological target: RPS6KB1 (human) (UniProt P23443)
[12] = biological target: BMP2K (human) (UniProt Q9NSY1)
[13] = biological target: MAP3K12 (human) (UniProt Q12852)
[14] = test system: FLT3 (human), P36888 [K663Q]
[15] = biological target: JAK2 JH1 catalytic (human) (UniProt O60674)
[16] = biological target: MAP3K13 (human) (UniProt O43283)
[17] = biological target: ULK1 (human) (UniProt O75385)
[18] = biological target: RPS6KA1 KD2 (human) (UniProt Q15418)
[19] = biological target: MARK1 (human) (UniProt Q9P0L2)
Sequence of MARK1 (human) (Q9P0L2 whole entry, looked up): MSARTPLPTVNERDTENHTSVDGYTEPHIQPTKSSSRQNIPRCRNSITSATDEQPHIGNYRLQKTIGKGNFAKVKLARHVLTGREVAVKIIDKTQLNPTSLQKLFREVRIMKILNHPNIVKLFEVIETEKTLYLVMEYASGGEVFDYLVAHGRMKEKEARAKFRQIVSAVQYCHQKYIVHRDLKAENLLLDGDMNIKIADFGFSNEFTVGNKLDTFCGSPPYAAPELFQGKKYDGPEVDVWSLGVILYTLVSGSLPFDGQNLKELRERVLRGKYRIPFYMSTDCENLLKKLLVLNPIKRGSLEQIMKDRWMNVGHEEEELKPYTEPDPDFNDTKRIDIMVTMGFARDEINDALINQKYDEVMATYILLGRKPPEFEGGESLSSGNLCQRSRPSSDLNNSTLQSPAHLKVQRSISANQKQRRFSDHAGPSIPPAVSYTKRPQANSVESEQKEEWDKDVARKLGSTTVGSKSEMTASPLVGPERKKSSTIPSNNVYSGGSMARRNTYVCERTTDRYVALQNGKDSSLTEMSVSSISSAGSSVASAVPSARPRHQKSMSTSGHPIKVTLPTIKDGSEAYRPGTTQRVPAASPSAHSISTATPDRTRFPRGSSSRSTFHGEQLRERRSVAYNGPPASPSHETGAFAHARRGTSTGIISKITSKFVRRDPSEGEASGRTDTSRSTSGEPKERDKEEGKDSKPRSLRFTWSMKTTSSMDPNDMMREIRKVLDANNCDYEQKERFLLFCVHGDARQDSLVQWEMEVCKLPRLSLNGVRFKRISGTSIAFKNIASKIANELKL

[20] = biological target: DMPK (human) (UniProt Q09013)
[21] = biological target: MAPK8 (human) (UniProt P45983)
[22] = biological target: CDKL5 (human) (UniProt O76039)
[23] = biological target: CaMK1 (human) (UniProt Q14012)
[24] = biological target: SRPK1 (human) (UniProt Q96SB4)
[25] = biological target: HCK (human) (UniProt P08631)
[26] = biological target: PAK3 (human) (UniProt O75914)
[27] = biological target: PTK2 (human) (UniProt Q05397)
[28] = biological target: NTRK2 (human) (UniProt Q16620)
Sequence of NTRK2 (human) (Q16620 whole entry, looked up): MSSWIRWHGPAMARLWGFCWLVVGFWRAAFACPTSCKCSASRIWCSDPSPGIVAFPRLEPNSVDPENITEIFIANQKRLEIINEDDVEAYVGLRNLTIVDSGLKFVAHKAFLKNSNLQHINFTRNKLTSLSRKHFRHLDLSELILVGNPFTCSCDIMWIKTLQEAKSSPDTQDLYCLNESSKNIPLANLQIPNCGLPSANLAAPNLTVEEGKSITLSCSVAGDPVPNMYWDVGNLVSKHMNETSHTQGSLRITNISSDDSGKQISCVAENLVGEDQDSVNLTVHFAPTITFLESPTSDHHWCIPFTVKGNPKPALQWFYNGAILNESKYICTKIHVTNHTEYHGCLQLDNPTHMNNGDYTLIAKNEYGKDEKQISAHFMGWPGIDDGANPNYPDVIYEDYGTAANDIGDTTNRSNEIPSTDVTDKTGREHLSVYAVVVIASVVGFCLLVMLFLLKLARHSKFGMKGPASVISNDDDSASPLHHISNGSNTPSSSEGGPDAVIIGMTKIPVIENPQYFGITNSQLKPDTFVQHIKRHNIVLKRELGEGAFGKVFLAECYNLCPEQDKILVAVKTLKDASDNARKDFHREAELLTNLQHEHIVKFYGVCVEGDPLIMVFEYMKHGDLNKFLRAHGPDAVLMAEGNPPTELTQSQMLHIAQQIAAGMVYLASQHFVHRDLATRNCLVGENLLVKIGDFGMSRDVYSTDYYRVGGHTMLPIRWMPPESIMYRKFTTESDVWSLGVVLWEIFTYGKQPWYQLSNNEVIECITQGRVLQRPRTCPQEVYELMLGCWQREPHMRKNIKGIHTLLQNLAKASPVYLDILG

[29] = biological target: MYO3B (human) (UniProt Q8WXR4)
[30] = test system: RET (human), P07949 [V804M]
[31] = biological target: CDK15 (human) (UniProt Q96Q40)
[32] = biological target: PRKACA (human) (UniProt P17612)
[33] = biological target: SIK2 (human) (UniProt Q9H0K1)
Sequence of SIK2 (human) (Q9H0K1 whole entry, looked up): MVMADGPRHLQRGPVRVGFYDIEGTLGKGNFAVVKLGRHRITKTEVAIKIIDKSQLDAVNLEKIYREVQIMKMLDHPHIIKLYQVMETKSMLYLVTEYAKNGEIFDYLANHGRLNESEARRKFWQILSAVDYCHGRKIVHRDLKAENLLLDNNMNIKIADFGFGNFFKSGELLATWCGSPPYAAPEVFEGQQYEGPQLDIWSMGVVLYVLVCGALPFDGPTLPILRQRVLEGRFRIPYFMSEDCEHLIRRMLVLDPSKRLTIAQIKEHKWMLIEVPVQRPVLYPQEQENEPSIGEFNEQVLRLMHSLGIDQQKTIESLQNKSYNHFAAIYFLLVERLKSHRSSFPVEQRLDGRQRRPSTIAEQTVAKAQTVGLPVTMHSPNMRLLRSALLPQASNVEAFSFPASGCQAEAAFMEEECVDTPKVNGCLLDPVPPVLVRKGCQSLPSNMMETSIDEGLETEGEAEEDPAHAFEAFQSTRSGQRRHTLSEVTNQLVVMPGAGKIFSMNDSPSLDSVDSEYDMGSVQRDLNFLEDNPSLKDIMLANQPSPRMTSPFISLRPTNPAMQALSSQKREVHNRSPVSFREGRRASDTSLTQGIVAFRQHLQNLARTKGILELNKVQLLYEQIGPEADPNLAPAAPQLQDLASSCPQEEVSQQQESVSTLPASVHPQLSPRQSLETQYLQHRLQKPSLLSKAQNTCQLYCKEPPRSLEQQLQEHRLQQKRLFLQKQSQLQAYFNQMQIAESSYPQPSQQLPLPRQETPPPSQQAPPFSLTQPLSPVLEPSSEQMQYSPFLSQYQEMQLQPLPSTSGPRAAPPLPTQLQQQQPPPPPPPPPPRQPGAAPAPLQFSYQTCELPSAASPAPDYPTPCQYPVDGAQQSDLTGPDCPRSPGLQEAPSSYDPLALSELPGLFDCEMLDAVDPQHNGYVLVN

[34] = biological target: GSK3A (human) (UniProt P49840)
[35] = biological target: STK17A (human) (UniProt Q9UEE5)
Sequence of STK17A (human) (Q9UEE5 whole entry, looked up): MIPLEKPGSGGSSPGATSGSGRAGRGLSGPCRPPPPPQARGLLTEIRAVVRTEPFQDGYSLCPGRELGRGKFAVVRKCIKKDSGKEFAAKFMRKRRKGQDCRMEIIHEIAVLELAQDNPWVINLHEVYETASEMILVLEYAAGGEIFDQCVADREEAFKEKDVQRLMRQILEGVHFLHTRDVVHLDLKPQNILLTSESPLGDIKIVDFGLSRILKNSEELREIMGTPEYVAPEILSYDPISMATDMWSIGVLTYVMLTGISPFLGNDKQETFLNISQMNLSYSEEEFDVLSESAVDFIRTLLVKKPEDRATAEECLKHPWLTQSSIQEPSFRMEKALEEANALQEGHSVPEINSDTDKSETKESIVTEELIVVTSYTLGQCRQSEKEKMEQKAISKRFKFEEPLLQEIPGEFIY

[36] = biological target: EPHA2 (human) (UniProt P29317)
[37] = biological target: CLK1 (human) (UniProt P49759)
[38] = biological target: CDC42BPG (human) (UniProt Q6DT37)
[39] = biological target: HIPK1 (human) (UniProt Q86Z02)
[40] = biological target: EPHA1 (human) (UniProt P21709)
[41] = biological target: CDC42BPA (human) (UniProt Q5VT25)

Sequence of NEK5 (human) (Q6P3R8 whole entry, looked up): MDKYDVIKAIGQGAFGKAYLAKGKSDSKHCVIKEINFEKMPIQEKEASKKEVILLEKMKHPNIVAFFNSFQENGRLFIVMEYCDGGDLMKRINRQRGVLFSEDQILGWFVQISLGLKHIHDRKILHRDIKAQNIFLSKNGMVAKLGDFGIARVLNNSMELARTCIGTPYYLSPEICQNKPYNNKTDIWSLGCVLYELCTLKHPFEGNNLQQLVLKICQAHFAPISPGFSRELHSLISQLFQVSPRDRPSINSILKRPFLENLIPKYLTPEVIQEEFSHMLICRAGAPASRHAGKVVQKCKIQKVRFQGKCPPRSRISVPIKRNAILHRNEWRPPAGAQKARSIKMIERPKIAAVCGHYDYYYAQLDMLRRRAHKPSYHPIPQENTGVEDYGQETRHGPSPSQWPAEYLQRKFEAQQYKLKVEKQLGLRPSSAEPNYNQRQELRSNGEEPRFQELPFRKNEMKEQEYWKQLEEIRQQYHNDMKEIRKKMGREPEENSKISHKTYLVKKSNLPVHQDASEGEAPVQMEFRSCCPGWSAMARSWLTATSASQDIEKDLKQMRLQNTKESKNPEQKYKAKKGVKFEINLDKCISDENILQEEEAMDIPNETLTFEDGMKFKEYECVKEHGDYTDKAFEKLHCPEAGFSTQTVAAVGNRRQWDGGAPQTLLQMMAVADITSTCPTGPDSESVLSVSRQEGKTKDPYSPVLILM
Sequence of DCLK1 (human) (O15075 whole entry, looked up): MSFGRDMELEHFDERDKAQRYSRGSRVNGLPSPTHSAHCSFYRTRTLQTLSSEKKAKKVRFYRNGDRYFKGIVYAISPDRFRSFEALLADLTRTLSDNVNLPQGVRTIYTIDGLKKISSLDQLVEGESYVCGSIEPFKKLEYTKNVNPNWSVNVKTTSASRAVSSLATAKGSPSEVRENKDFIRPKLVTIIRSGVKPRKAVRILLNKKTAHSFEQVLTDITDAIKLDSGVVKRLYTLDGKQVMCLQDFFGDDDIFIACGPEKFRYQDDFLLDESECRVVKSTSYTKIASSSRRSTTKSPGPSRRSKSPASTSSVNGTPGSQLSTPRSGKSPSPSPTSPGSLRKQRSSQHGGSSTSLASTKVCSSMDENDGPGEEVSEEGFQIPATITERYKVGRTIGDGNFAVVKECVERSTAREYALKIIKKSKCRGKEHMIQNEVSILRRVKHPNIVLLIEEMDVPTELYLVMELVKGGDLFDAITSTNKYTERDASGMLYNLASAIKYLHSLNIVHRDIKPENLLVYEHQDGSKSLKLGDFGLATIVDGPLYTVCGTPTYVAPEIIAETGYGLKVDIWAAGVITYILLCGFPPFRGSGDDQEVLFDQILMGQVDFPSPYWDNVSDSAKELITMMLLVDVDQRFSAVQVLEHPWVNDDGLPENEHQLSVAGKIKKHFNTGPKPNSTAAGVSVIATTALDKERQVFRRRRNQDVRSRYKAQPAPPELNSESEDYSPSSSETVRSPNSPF

With CNC(=O)c1cc(Oc2ccc(NC(=O)Nc3ccc(Cl)c(C(F)(F)F)c3)cc2)ccn1 as the molecule, how does the per cent of control [1] read?
Its per cent of control is 56%.

And the per cent of control [2]?
Its per cent of control is 100%.

And the per cent of control [3]?
The per cent of control was 62%.

And the per cent of control [4]?
The per cent of control was 61%.

And the per cent of control [5]?
The per cent of control was 99%.

What about the per cent of control [6] of the same molecule?
Its per cent of control is 100%.

What about the per cent of control [7] of the same molecule?
The per cent of control was 100%.

What about the per cent of control [8] of the same molecule?
The per cent of control was 98%.

What about the per cent of control [9] of the same molecule?
The per cent of control was 7.6%.

And the per cent of control [10]?
The per cent of control was 100%.

And the per cent of control [11]?
Its per cent of control is 46%.

And the per cent of control [12]?
The per cent of control was 65%.

What about the per cent of control [13] of the same molecule?
The per cent of control was 100%.

What about the per cent of control [14] of the same molecule?
The per cent of control was 0.25%.

What about the per cent of control [15] of the same molecule?
The per cent of control was 70%.

And the per cent of control [16]?
The per cent of control was 88%.

And the per cent of control [17]?
The per cent of control was 89%.

And the per cent of control [18]?
The per cent of control was 77%.

What about the per cent of control [19] of the same molecule?
Its per cent of control is 90%.

What about the per cent of control [20] of the same molecule?
Its per cent of control is 90%.

And the per cent of control [21]?
The per cent of control was 88%.

What about the per cent of control [22] of the same molecule?
Its per cent of control is 67%.

And the per cent of control [23]?
Its per cent of control is 87%.

What about the per cent of control [24] of the same molecule?
The per cent of control was 100%.

And the per cent of control [25]?
Its per cent of control is 14%.

And the per cent of control [26]?
The per cent of control was 56%.

What about the per cent of control [27] of the same molecule?
Its per cent of control is 100%.

What about the per cent of control [28] of the same molecule?
Its per cent of control is 6.1%.

And the per cent of control [29]?
Its per cent of control is 38%.

What about the per cent of control [30] of the same molecule?
The per cent of control was 0%.

And the per cent of control [31]?
The per cent of control was 7.4%.

And the per cent of control [32]?
Its per cent of control is 100%.

What about the per cent of control [33] of the same molecule?
The per cent of control was 74%.

What about the per cent of control [34] of the same molecule?
Its per cent of control is 100%.

And the per cent of control [35]?
The per cent of control was 58%.

What about the per cent of control [36] of the same molecule?
The per cent of control was 9%.

What about the per cent of control [37] of the same molecule?
The per cent of control was 29%.

And the per cent of control [38]?
The per cent of control was 84%.

And the per cent of control [39]?
The per cent of control was 17%.

And the per cent of control [40]?
Its per cent of control is 11%.

And the per cent of control [41]?
Its per cent of control is 96%.

Which results are given for CNC(=O)c1cc(Oc2ccc(NC(=O)Nc3ccc(Cl)c(C(F)(F)F)c3)cc2)cc[n+]1[O-]?
per cent of control [1]: 44%; per cent of control [2]: 100%; per cent of control [3]: 53%; per cent of control [4]: 43%; per cent of control [5]: 91%; per cent of control [6]: 79%; per cent of control [7]: 100%; per cent of control [8]: 100%; per cent of control [9]: 8.5%; per cent of control [10]: 100%; per cent of control [11]: 42%; per cent of control [12]: 100%; per cent of control [13]: 100%; per cent of control [14]: 0.2%; per cent of control [15]: 68%; per cent of control [16]: 68%; per cent of control [17]: 99%; per cent of control [18]: 58%; per cent of control [19]: 100%; per cent of control [20]: 91%; per cent of control [21]: 13%; per cent of control [22]: 27%; per cent of control [23]: 58%; per cent of control [24]: 100%; per cent of control [25]: 8.8%; per cent of control [26]: 43%; per cent of control [27]: 97%; per cent of control [28]: 2.4%; per cent of control [29]: 17%; per cent of control [30]: 0%; per cent of control [31]: 9.6%; per cent of control [32]: 100%; per cent of control [33]: 66%; per cent of control [34]: 100%; per cent of control [35]: 66%; per cent of control [36]: 4.7%; per cent of control [37]: 46%; per cent of control [38]: 86%; per cent of control [39]: 44%; per cent of control [40]: 18%; per cent of control [41]: 90%

From the kinase profiling compilation of Christmann-Franck et al. (2016)
